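Briefly, cells in 96-well plates were exposed to five compound concentrations for 48 h, and endpoints were estimated by linear interpolation. GI50 is the concentration that inhibits growth by half. TGI is the concentration that stops growth completely.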
Tests used:
Experiment in all cases: NCI tumour cell line growth inhibition, 48 h
SK-MEL-28 melanoma = test system: SK-MEL-28 melanoma
HL-60(TB) leukemia = test system: HL-60(TB) leukemia
HCC-2998 colon = test system: HCC-2998 colon
SK-OV-3 ovarian = test system: SK-OV-3 ovarian
CAKI-1 renal = test system: CAKI-1 renal
DU-145 prostate = test system: DU-145 prostate
HOP-92 NSCLC = test system: HOP-92 NSCLC
NCI/ADR-RES ovarian = test system: NCI/ADR-RES ovarian
ACHN renal = test system: ACHN renal
CCRF-CEM leukemia = test system: CCRF-CEM leukemia
MALME-3M melanoma = test system: MALME-3M melanoma
OVCAR-3 ovarian = test system: OVCAR-3 ovarian
RPMI-8226 leukemia = test system: RPMI-8226 leukemia
SK-MEL-5 melanoma = test system: SK-MEL-5 melanoma
HCT-116 colon = test system: HCT-116 colon
SF-539 CNS = test system: SF-539 CNS
NCI-H226 lung = test system: NCI-H226 lung
LOX IMVI melanoma = test system: LOX IMVI melanoma
COLO 205 colon = test system: COLO 205 colon
HOP-62 NSCLC = test system: HOP-62 NSCLC
SF-268 CNS = test system: SF-268 CNS
PC-3 prostate = test system: PC-3 prostate
NCI-H23 lung = test system: NCI-H23 lung
SNB-19 CNS = test system: SNB-19 CNS
HCT-15 colon = test system: HCT-15 colon
TK-10 renal = test system: TK-10 renal
MCF7 breast = test system: MCF7 breast
NCI-H460 lung = test system: NCI-H460 lung
OVCAR-5 ovarian = test system: OVCAR-5 ovarian
SF-295 CNS = test system: SF-295 CNS
SR leukemia = test system: SR leukemia
OVCAR-4 ovarian = test system: OVCAR-4 ovarian
HT29 colon = test system: HT29 colon
SK-MEL-2 melanoma = test system: SK-MEL-2 melanoma
UACC-62 melanoma = test system: UACC-62 melanoma
SN12C renal = test system: SN12C renal
MDA-MB-231 breast = test system: MDA-MB-231 breast
SNB-75 CNS = test system: SNB-75 CNS
A549 NSCLC = test system: A549 NSCLC
SW-620 colon = test system: SW-620 colon
IGROV1 ovarian = test system: IGROV1 ovarian
UACC-257 melanoma = test system: UACC-257 melanoma
MDA-MB-435 = test system: MDA-MB-435
786-0 renal = test system: 786-0 renal
U251 CNS = test system: U251 CNS
HS 578T breast = test system: HS 578T breast
RXF 393 renal = test system: RXF 393 renal
M14 melanoma = test system: M14 melanoma
K-562 leukemia = test system: K-562 leukemia
NCI-H522 lung = test system: NCI-H522 lung
A498 renal = test system: A498 renal
OVCAR-8 ovarian = test system: OVCAR-8 ovarian
T-47D breast = test system: T-47D breast
BT-549 breast = test system: BT-549 breast
EKVX NSCLC = test system: EKVX NSCLC
KM12 colon = test system: KM12 colon
UO-31 renal = test system: UO-31 renal
MOLT-4 leukemia = test system: MOLT-4 leukemia

In the case of Nc1nnnc2nc[nH]c12, the TGI (SK-MEL-28 melanoma) is reported as over 45800 nM, the GI50 (HL-60(TB) leukemia) is reported as 1920 nM and the TGI (HL-60(TB) leukemia) is reported as over 100000 nM. The GI50 (HCC-2998 colon) was 1260 nM, the TGI (HCC-2998 colon) was over 34700 nM and the GI50 (SK-OV-3 ovarian) was 327 nM. For the same molecule, the TGI (SK-OV-3 ovarian) was 6220 nM, the GI50 (CAKI-1 renal) was 221 nM and the GI50 (DU-145 prostate) was 800 nM. The TGI (DU-145 prostate) was over 100000 nM, the GI50 (HOP-92 NSCLC) was 622 nM and the TGI (HOP-92 NSCLC) was over 100000 nM. It also gave a GI50 (NCI/ADR-RES ovarian) of 742 nM, a TGI (NCI/ADR-RES ovarian) of over 26000 nM and a GI50 (ACHN renal) of 1080 nM. It also gave a TGI (ACHN renal) of over 100000 nM, a GI50 (CCRF-CEM leukemia) of 720 nM and a TGI (CCRF-CEM leukemia) of over 100000 nM. For the same molecule, the GI50 (MALME-3M melanoma) was 759 nM, the TGI (MALME-3M melanoma) was 7060 nM and the GI50 (OVCAR-3 ovarian) was 2530 nM. For the same molecule, the TGI (OVCAR-3 ovarian) was over 100000 nM, the GI50 (RPMI-8226 leukemia) was 245 nM and the TGI (RPMI-8226 leukemia) was over 85800 nM. It also gave a GI50 (SK-MEL-5 melanoma) of 2020 nM, a TGI (SK-MEL-5 melanoma) of 8220 nM and a GI50 (HCT-116 colon) of 639 nM. It also gave a TGI (HCT-116 colon) of over 100000 nM, a GI50 (SF-539 CNS) of 1630 nM and a TGI (SF-539 CNS) of 13500 nM. It also gave a GI50 (NCI-H226 lung) of 1050 nM, a TGI (NCI-H226 lung) of 4860 nM and a GI50 (LOX IMVI melanoma) of 455 nM. It also gave a TGI (LOX IMVI melanoma) of over 25800 nM, a GI50 (COLO 205 colon) of 1850 nM and a TGI (COLO 205 colon) of 7470 nM. For the same molecule, the GI50 (HOP-62 NSCLC) was 907 nM, the TGI (HOP-62 NSCLC) was over 58000 nM and the GI50 (SF-268 CNS) was 3190 nM. The TGI (SF-268 CNS) was over 100000 nM, the GI50 (PC-3 prostate) was 2420 nM and the TGI (PC-3 prostate) was over 100000 nM. It also gave a GI50 (NCI-H23 lung) of 3190 nM, a TGI (NCI-H23 lung) of 40900 nM and a GI50 (SNB-19 CNS) of 6170 nM. The TGI (SNB-19 CNS) was over 100000 nM, the GI50 (HCT-15 colon) was 2640 nM and the TGI (HCT-15 colon) was over 100000 nM. The GI50 (TK-10 renal) was 500 nM, the TGI (TK-10 renal) was over 41500 nM and the GI50 (MCF7 breast) was 2580 nM. For the same molecule, the TGI (MCF7 breast) was over 100000 nM, the GI50 (NCI-H460 lung) was 2460 nM and the TGI (NCI-H460 lung) was over 100000 nM. It also gave a GI50 (OVCAR-5 ovarian) of 623 nM, a TGI (OVCAR-5 ovarian) of over 100000 nM and a GI50 (SF-295 CNS) of 780 nM. For the same molecule, the TGI (SF-295 CNS) was over 29800 nM, the TGI (SR leukemia) was over 100000 nM and the GI50 (OVCAR-4 ovarian) was 547 nM. The TGI (OVCAR-4 ovarian) was over 100000 nM, the GI50 (HT29 colon) was 3790 nM and the TGI (HT29 colon) was over 100000 nM. For the same molecule, the GI50 (SK-MEL-2 melanoma) was 1060 nM, the TGI (SK-MEL-2 melanoma) was 42400 nM and the GI50 (UACC-62 melanoma) was 637 nM. It also gave a TGI (UACC-62 melanoma) of 2720 nM, a GI50 (SN12C renal) of 2250 nM and a TGI (SN12C renal) of over 100000 nM. For the same molecule, the GI50 (MDA-MB-231 breast) was 597 nM, the TGI (MDA-MB-231 breast) was over 100000 nM and the TGI (SNB-75 CNS) was over 100000 nM. It also gave a GI50 (A549 NSCLC) of 6420 nM, a TGI (A549 NSCLC) of over 100000 nM and a GI50 (SW-620 colon) of 780 nM. For the same molecule, the TGI (SW-620 colon) was over 100000 nM, the GI50 (IGROV1 ovarian) was 4750 nM and the TGI (IGROV1 ovarian) was over 100000 nM. For the same molecule, the GI50 (UACC-257 melanoma) was 729 nM, the TGI (UACC-257 melanoma) was 14000 nM and the GI50 (MDA-MB-435) was 542 nM. It also gave a TGI (MDA-MB-435) of 2570 nM, a GI50 (786-0 renal) of 960 nM and a TGI (786-0 renal) of over 100000 nM. The GI50 (U251 CNS) was 2390 nM, the TGI (U251 CNS) was over 100000 nM and the GI50 (HS 578T breast) was 3510 nM. The TGI (HS 578T breast) was over 65500 nM, the GI50 (RXF 393 renal) was 1350 nM and the TGI (RXF 393 renal) was over 100000 nM. For the same molecule, the GI50 (M14 melanoma) was 568 nM, the TGI (M14 melanoma) was 4020 nM and the GI50 (K-562 leukemia) was 3720 nM. For the same molecule, the TGI (K-562 leukemia) was over 100000 nM, the GI50 (NCI-H522 lung) was 2020 nM and the TGI (NCI-H522 lung) was 17000 nM. The GI50 (A498 renal) was 1870 nM, the TGI (A498 renal) was 15300 nM and the GI50 (OVCAR-8 ovarian) was 1260 nM. The TGI (OVCAR-8 ovarian) was over 100000 nM, the GI50 (T-47D breast) was 297 nM and the TGI (T-47D breast) was 2550 nM. The GI50 (BT-549 breast) was 1030 nM, the TGI (BT-549 breast) was over 25200 nM and the GI50 (EKVX NSCLC) was 700 nM. It also gave a TGI (EKVX NSCLC) of over 100000 nM, a GI50 (KM12 colon) of 4110 nM and a TGI (KM12 colon) of over 100000 nM. The GI50 (UO-31 renal) was 523 nM, the TGI (UO-31 renal) was over 100000 nM and the GI50 (MOLT-4 leukemia) was 2620 nM. For the same molecule, the TGI (MOLT-4 leukemia) was over 100000 nM.

Reference: PubChem BioAssay (NCI)
